One series relates to mice with CIPN. Put plainly: Chemotherapy-induced peripheral neuropathy (CIPN) model established with paclitaxel. Type of series: in vivo, mouse. The note with it: i.p., 24 h after the 2nd injection. The procedure:
Mouse pain models: The chemotherapy-induced peripheral neuropathy (CIPN) model of chronic neuropathic pain was established as we have done previously, using 8-10-week-old CD-1 (strain #022, Charles River) mice injected with paclitaxel (2 mg/kg i.p.) every other day, with 4 injections total. The chronic constriction injury (CCI) model of neuropathic pain was also produced using 8-10-week-old CD-1 under isoflurane anesthesia. Briefly, the right sciatic nerve was exposed above the hip and two ligatures (7-0 Prolene) were placed around the nerve 1 mm apart located proximal to the trifurcation. Ligatures were loosely tied until a subtle flick of the ipsilateral hind limb was observed. CD-1 mice were also used to establish the SNI model, which was generated by tightly ligating the tibial and common peroneal nerves followed by transection and removal of a ˜3 mm portion of the nerve. […] All mice were housed and monitored in accordance with AAALAC standards and Duke IACUC guidelines that pertained to each model.
Reflexive-based sensory testing in mice: All behavioral testing in mice was performed in a specialized humidity- and light-controlled mouse behavior facility maintained at 21-24° C., with testing conducted between the hours of 8:00-16:00. […] We determined the 50% paw withdrawal threshold using the up-down method. […]

For series [1], the system named is mice with LLC bone cancer pain (BCP). Put plainly: Syngeneic bone cancer pain (BCP) model, i.t. treatment. Type of series: in vivo, mouse. The procedure:
Mouse pain models: The chemotherapy-induced peripheral neuropathy (CIPN) model of chronic neuropathic pain was established as we have done previously, using 8-10-week-old CD-1 (strain #022, Charles River) mice injected with paclitaxel (2 mg/kg i.p.) every other day, with 4 injections total. The chronic constriction injury (CCI) model of neuropathic pain was also produced using 8-10-week-old CD-1 under isoflurane anesthesia. Briefly, the right sciatic nerve was exposed above the hip and two ligatures (7-0 Prolene) were placed around the nerve 1 mm apart located proximal to the trifurcation. Ligatures were loosely tied until a subtle flick of the ipsilateral hind limb was observed. CD-1 mice were also used to establish the SNI model, which was generated by tightly ligating the tibial and common peroneal nerves followed by transection and removal of a ˜3 mm portion of the nerve. The sural nerve was left intact and contact or stretching of this nerve was avoided . To establish the syngeneic bone cancer pain (BCP) model, 8-10-week-old C57BL/6J mice (strain #000664, Jackson Labs) were utilized, as the Lewis lung carcinoma cell line LLC1 (LL/2; ATCC CRL-1642) was originally generated in C57BL/6J mice. Mice were anesthetized with isoflurane and the left leg was shaved, disinfected with 10% povidone-iodine, and a 1 cm superficial incision was made to expose the patellar ligament. A 25-gauge needle was inserted at the intercondylar notch of the left femur into the femoral cavity, followed by needle replacement with a 10 μl Hamilton syringe microinjector containing a 2 μl suspension of LLC cells (2×10^5 cells) followed by a 2 μl gelatin sponge solution to enable closure of the injection site. All mice were housed and monitored in accordance with AAALAC standards and Duke IACUC guidelines that pertained to each model.
Reflexive-based sensory testing in mice: All behavioral testing in mice was performed in a specialized humidity- and light-controlled mouse behavior facility maintained at 21-24° C., with testing conducted between the hours of 8:00-16:00. Mice were habituated to the testing environment for at least 2 days prior to baseline testing. All tests were performed by an experimenter who was blinded to experimental conditions, including genotypes and drug treatment. For multi-day experiments using STING agonists, mice were tested in the same room at approximately the same time each day. To measure mechanical sensitivity, mice were confined to individual chambers with non-transparent borders on an elevated mesh rack, preventing mice from visualizing or interacting with one another during the testing period. […] We determined the 50% paw withdrawal threshold using the up-down method. […]

Series [2] has as its system mice with intrafemoral Lewis lung carcinoma (LLC). Put plainly: LLC bone cancer pain model, systemic (i.p.) treatment, behavior tests and body weight. Type of series: in vivo, mouse. Particulars: for spontaneous and ongoing pain (flinching, guarding): d14; for body weight / cancer-induced cold allodynia / cancer-induced mechanical allodynia (paw withdrawal threshold): twice i.p.; for cancer-induced mechanical allodynia (paw withdrawal threshold): DMXAA, ADU-S100 20 mg/kg, ZA 100 μg/kg; for acute effect on bone cancer pain: d11, 4 h after single i.p. injection. On the procedure: Bone cancer pain model. The murine cell lines LLC1, LL/2-Luc2 or E0771 were lightly digested using 0.05% trypsin, followed by centrifugation to remove poorly digested cell clusters. Cells were then resuspended in PBS at a concentration of 1×10^8 cells/ml. The inoculation was performed as previously described (Wang, K. et al. “PD-1 blockade inhibits osteoclast formation and murine bone cancer pain.” The Journal of clinical investigation, (2020); Wang, Z. et al. “Anti-PD-1 treatment impairs opioid antinociception in rodents and nonhuman primates.” Sci Transl Med 12 (2020)). Briefly, mice were anesthetized with 4% isoflurane and the left leg was shaved and the skin disinfected with 10% povidone-iodine and 75% ethanol. A superficial incision (0.5-1 cm) was made near the knee joint, exposing the patellar ligament. […] The syringe contents were slowly injected into the femoral cavity over a 2-minute interval. To prevent further leakage of tumor cells outside of the bone cavity, the outer injection site was sealed with silicone adhesive (Kwik-Sil, World Precision Instruments, US). Animals with surgery related movement dysfunction or with outside bone tumor injection were excluded from the study. Drug treatment. […] All other reagents were dissolved in sterile saline or PBS. For experiments utilizing rabbit anti-IFN-α or -β neutralizing antibodies, a polyclonal rabbit IgG antibody served as the control. […] Behavior tests. All the behavioral tests were conducted in a blinded manner and performed during between the hours of 9:00-16:00. Animals were habituated in a light and humidity controlled testing environment for at least 2 days prior to baseline testing. For Von Frey testing, mice were confined to individual 5×5 cm boxes placed on an elevated wire grid. A blinded experimenter stimulated their hindpaws using a series of von Frey filaments with logarithmically increasing stiffness (0.02-2.56 g, Stoelting). Each filament was applied perpendicularly to the central plantar surface. The 50% paw withdrawal threshold was determined using Dixon's up-down method.

In series [3] the test system is bone marrow-derived macrophages (BMDM). Put plainly: In vitro osteoclastogenesis from bone marrow-derived macrophages (BMDM), TRAP staining. Type of series: cell-based, mouse. Particulars: 30 μM, WT vs STING^gt/gt or Ifnar1^−/−. The procedure: In vitro induction of osteoclastogenesis and TRAP staining. For in vitro drug treatment, the RAW 264.7 cells were incubated with 35 ng/ml RANKL for six days. Isolated bone marrow cells were cultured overnight in α-MEM media containing 10% fetal bovine serum and 1% antibiotic-antimycotic solution. The suspended cells were collected and incubated with 20 ng/ml MCSF for 3 days to obtain bone marrow-derived macrophage (BMDM). The attached cells were further activated by 35 ng/ml RANKL and 20 ng/ml MCSF. Drug treatment was performed in tandem with RANKL. Culture medium and co-cultured reagents were changed every 3 days. After 6 or 7 days of incubation, the cells were fixed by 4% PFA and stained with warm TRAP staining solution (TRAP kit, Sigma-Aldrich, SLBW4002) for 10-30 min at 37° C.

“Also recorded” adds a separate entry of the source.

With `Cc1ccc2c(=O)c3cccc(CC(=O)O)c3oc2c1C` [DMXAA, 2-(5,6-dimethyl-9-oxo-9H-xanthen-4-yl)acetic acid], the “deaths (toxicity with systemic administration)” value with mice with CIPN stood at 3 mice. Also, in series [1], the cold allodynia result is recorded as “suppressed cold allodynia” and the tumor burden entry is on record as “tumor burden was unaffected”. In series [2] (20 mg/kg i.p. d3 and d7), the “mechanical and cold allodynia, WT and Rag1^−/−” value was “reduced by DMXAA treatment in both WT and Rag1^−/− mice at early stages (7 d and 10 d), but not at later stages”; the “mechanical and cold allodynia, WT vs Ifnar1^−/−” value was “effectively attenuated cancer-induced mechanical allodynia and cold allodynia in WT mice but not Ifnar1^−/− mice”; the “mechanical and cold allodynia, WT vs STING^gt/gt” value is “significantly attenuated mechanical and cold allodynia in WT mice, and this effect was abolished in STING^gt/gt mice”; the “mechanical or cold allodynia in Batf3^−/− mice” value was “could attenuate mechanical allodynia or cold allodynia in Batf3^−/− mice on d7 and d10 but not day 14”. In addition, in series [2] (20 mg/kg i.p., 4 h), the “acute effect on mechanical and cold allodynia, WT vs STING^gt/gt or Ifnar1^−/−” value is “could reduce mechanical allodynia and cold allodynia in WT mice but not in STING^gt/gt mice or Ifnar1^−/− mice”. In addition, in series [2] (LLC model), the “spontaneous and ongoing pain (flinching, guarding)” value is “attenuated measures of spontaneous and ongoing pain”; the body weight result was “no differences in body weight; also recorded: did not see body weight changes”; the cancer-induced cold allodynia entry was “significantly reduced”; the “cancer-induced mechanical allodynia (paw withdrawal threshold)” value was “significantly reduced mechanical allodynia on d7, d10 and d14”. Also, in series [2], the “acute effect on bone cancer pain” value is “substantial reduction in mechanical allodynia, cold allodynia, and spontaneous pain”. Also, in series [2] (single 20 mg/kg i.p.), the “acute antinociceptive effects, WT vs Ifnar1-cKO” value was “present in WT, but not Ifnar1-cKO littermates”. In series [3], the “osteoclast formation from BMDM” value was “could significantly inhibit osteoclast formation from BMDM from WT mice but not from STING^gt/gt or Ifnar1^−/− mice”.
As to `Nc1ncnc2c1ncn2[C@@H]1O[C@@H]2COP(=O)([S-])O[C@@H]3[C@H](O)[C@@H](COP([O-])(=S)O[C@H]2[C@H]1O)O[C@H]3n1cnc2c(N)ncnc21.[Na+].[Na+]` (stereo partly drawn) [ADU-S100, (2′-5′)-[P(R)]-5′-O-[(R)-hydroxymercaptophosphinyl]-P-thioadenylyl-adenosine cyclic dinucleotide], the “deaths (toxicity with systemic administration)” value with mice with CIPN is “No mice died”. In series [1], the cold allodynia entry is “suppressed cold allodynia” and the tumor burden entry is recorded as “tumor burden was unaffected”. For the same compound, in series [2] (LLC model), the “spontaneous and ongoing pain (flinching, guarding)” value was “exhibited reduced spontaneous and ongoing pain”; the body weight result is recorded as “no effect on overall body weight”; the cancer-induced cold allodynia entry was “reduced cold allodynia on both d10 and d14”; the “cancer-induced mechanical allodynia (paw withdrawal threshold)” value was “could significantly attenuate mechanical allodynia in both measures on d10 and d14”. In addition, the “withdrawal frequency to low-threshold stimulation (0.16 g Von Frey filament)” value in series [2] (LLC model, i.p. at d3 and d10) was “could significantly attenuate mechanical allodynia in both measures on d10 and d14”. For the same compound, in series [2], the “acute effect on bone cancer pain” value is “substantial reduction in mechanical allodynia, cold allodynia, and spontaneous pain”. In addition, the “osteoclast formation from BMDM” value in series [3] is listed as “could significantly inhibit osteoclast formation from BMDM from WT mice but not from STING^gt/gt or Ifnar1^−/− mice”.

Values taken from patent publication US20230158057A1, “COMPOSITIONS AND METHODS FOR THE TREATMENT OF PAIN” (Duke University, priority 2020, published 2023).
